Source: article PMC5814754, “Quantitative, Wide-Spectrum Kinase Profiling in Live Cells for Assessing the Effect of Cellular ATP on Target Engagement” (Cell Chemical Biology, 2018)
Like-named read-outs stand apart in the source and are kept apart here.

Legend:
Assay in all cases: NanoBRET single-dose fractional occupancy profiling of kinase/Nluc library in live HEK293 cells (Table S1)
Type in all cases: binding
Parameters in all cases: receptor occupancy: dose or concentration left out as unconfirmed; Occupancy, % Replicate 1 / Occupancy, % Replicate 2: unit of the concentration uncertain
[1] = biological target: 178 full-length kinases (Homo sapiens, UniProt P07333); conditions: CSF1R, Nluc C, probe 6
Sequence of 178 full-length kinases (Homo sapiens, UniProt P07333) (P07333 20-972): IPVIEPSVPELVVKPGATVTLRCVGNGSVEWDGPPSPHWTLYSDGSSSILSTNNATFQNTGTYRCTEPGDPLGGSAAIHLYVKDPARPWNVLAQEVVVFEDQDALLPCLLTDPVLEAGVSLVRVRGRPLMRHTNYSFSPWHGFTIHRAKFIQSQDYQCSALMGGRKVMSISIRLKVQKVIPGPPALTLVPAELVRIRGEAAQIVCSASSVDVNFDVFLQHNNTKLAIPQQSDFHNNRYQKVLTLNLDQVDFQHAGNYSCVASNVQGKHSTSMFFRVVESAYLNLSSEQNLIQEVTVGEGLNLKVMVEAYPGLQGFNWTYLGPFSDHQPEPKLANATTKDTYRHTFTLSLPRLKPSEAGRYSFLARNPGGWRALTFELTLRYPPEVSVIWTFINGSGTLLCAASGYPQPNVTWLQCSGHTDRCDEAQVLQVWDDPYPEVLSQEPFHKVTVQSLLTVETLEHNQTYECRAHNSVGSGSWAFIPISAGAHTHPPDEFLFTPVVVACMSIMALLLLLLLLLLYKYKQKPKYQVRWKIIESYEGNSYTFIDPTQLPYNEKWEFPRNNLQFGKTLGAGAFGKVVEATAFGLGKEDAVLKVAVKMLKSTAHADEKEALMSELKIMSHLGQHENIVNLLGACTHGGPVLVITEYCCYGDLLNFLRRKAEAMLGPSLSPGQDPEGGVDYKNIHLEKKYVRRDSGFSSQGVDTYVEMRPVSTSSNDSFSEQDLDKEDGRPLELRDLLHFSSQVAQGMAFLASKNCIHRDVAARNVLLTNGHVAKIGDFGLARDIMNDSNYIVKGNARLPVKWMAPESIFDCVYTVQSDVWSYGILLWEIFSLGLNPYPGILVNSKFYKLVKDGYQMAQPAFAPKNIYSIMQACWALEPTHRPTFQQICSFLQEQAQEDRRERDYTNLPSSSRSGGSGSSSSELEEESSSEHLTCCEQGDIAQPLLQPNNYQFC

[2] = biological target: 178 full-length kinases (Homo sapiens, UniProt Q15831); conditions: STK11 (NP_000446), Nluc orientation N, probe 5 at 1 (unit uncertain)
Sequence of 178 full-length kinases (Homo sapiens, UniProt Q15831) (Q15831 whole entry): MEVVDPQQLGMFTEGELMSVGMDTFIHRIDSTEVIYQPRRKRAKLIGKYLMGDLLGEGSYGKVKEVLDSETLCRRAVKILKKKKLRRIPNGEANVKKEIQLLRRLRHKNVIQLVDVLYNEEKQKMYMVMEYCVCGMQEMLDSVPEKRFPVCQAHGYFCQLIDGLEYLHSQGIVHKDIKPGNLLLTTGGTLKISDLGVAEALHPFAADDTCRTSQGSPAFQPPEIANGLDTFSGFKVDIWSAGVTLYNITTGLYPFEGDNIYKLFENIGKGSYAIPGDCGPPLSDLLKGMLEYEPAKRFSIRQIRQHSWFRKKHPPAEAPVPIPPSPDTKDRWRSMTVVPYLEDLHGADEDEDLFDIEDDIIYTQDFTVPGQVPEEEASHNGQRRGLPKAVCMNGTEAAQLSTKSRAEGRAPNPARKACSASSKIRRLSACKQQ

[3] = biological target: 178 full-length kinases (Homo sapiens, UniProt P51817); conditions: PRKX, Nluc C, probe 5 at 1 (unit uncertain)
Sequence of 178 full-length kinases (Homo sapiens, UniProt P51817) (P51817 whole entry): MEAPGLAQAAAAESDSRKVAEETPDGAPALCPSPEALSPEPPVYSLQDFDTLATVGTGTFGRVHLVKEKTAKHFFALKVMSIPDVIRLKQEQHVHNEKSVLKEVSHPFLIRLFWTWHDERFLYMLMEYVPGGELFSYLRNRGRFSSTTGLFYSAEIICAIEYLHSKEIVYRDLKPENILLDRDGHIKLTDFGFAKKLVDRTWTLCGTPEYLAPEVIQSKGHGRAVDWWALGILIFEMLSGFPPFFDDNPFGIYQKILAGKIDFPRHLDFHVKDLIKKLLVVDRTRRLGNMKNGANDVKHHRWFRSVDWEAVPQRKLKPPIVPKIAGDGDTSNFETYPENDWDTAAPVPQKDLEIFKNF

[4] = biological target: 178 full-length kinases (Homo sapiens, UniProt Q13627); conditions: DYRK1A, Nluc N, probe 5 at 1 (unit uncertain)
[5] = biological target: 178 full-length kinases (Homo sapiens, UniProt P51955); conditions: NEK2, Nluc N, probe 5 at 1 (unit uncertain)
[6] = biological target: 178 full-length kinases (Homo sapiens, UniProt Q9NYY3); conditions: PLK2, Nluc N, probe 5 at 1 (unit uncertain)
Sequence of 178 full-length kinases (Homo sapiens, UniProt Q9NYY3) (Q9NYY3 whole entry): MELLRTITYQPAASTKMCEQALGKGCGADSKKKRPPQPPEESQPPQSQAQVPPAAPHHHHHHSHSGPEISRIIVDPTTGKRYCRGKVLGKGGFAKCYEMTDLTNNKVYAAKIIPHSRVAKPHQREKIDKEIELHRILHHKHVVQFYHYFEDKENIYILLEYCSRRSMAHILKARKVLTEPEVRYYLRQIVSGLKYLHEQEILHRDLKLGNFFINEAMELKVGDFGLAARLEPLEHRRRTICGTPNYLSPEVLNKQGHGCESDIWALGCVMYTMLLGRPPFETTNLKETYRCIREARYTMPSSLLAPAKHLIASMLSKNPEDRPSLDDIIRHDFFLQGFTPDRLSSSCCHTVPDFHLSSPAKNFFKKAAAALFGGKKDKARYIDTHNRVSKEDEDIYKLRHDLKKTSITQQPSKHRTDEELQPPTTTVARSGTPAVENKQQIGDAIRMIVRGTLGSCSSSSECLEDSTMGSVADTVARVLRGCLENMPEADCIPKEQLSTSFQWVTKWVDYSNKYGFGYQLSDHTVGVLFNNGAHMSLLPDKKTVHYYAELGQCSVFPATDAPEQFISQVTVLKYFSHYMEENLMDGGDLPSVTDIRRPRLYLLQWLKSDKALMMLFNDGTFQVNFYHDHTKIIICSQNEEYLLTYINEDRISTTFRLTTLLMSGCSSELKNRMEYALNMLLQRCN

[7] = biological target: 178 full-length kinases (Homo sapiens, UniProt P11309); conditions: PIM1, Nluc C, probe 5 at 1 (unit uncertain)
[8] = biological target: 178 full-length kinases (Homo sapiens, UniProt P19784); conditions: CSNK2A2, Nluc C, probe 5 at 1 (unit uncertain)
Sequence of 178 full-length kinases (Homo sapiens, UniProt P19784) (P19784 whole entry): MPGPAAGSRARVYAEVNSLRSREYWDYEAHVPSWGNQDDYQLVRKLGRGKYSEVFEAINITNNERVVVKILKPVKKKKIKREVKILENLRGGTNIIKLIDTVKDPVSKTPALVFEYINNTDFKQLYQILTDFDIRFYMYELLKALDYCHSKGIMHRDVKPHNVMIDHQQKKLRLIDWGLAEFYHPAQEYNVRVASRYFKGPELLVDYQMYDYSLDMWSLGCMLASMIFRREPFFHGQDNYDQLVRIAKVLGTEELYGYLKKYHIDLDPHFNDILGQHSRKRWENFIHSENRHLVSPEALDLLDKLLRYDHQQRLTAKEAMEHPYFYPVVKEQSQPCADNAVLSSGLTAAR

[9] = biological target: 178 full-length kinases (Homo sapiens, UniProt P10721); conditions: KIT, Nluc C, probe 6 at 0.1 (unit uncertain)
Sequence of 178 full-length kinases (Homo sapiens, UniProt P10721) (P10721 26-976): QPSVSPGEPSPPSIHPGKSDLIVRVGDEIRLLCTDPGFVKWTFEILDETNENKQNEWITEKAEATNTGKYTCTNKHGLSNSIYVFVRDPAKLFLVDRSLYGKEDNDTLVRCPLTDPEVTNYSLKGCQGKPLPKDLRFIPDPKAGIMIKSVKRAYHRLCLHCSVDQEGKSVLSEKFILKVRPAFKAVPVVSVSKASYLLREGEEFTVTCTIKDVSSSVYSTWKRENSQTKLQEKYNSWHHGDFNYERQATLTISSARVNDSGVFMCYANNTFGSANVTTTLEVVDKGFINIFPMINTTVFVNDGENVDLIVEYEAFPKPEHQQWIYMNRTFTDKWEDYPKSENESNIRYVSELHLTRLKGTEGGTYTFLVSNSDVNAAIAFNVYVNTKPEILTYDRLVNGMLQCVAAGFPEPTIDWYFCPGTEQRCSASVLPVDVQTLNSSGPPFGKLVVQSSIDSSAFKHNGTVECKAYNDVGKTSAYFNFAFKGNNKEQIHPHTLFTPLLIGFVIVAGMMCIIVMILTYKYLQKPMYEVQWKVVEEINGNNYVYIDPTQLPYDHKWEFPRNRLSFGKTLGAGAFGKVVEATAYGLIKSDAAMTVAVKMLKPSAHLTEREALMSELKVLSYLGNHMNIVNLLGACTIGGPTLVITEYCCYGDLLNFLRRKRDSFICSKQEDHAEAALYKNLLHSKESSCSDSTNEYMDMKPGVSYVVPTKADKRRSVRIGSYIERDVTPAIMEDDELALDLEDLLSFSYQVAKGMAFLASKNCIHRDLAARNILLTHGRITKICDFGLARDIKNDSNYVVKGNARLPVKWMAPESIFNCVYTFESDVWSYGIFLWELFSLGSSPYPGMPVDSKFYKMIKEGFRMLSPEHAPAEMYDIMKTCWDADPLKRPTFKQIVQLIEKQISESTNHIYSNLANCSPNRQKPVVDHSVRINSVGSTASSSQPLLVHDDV

[10] = biological target: 178 full-length kinases (Homo sapiens, UniProt O76039); conditions: CDKL5, Nluc N, probe 5 at 1 (unit uncertain)
[11] = biological target: 178 full-length kinases (Homo sapiens, UniProt Q14680); conditions: MELK, Nluc N, probe 5 at 1 (unit uncertain)
[12] = biological target: 178 full-length kinases (Homo sapiens, UniProt Q9P286); conditions: PAK7, Nluc C, probe 5 at 1 (unit uncertain)
Sequence of 178 full-length kinases (Homo sapiens, UniProt Q9P286) (Q9P286 whole entry): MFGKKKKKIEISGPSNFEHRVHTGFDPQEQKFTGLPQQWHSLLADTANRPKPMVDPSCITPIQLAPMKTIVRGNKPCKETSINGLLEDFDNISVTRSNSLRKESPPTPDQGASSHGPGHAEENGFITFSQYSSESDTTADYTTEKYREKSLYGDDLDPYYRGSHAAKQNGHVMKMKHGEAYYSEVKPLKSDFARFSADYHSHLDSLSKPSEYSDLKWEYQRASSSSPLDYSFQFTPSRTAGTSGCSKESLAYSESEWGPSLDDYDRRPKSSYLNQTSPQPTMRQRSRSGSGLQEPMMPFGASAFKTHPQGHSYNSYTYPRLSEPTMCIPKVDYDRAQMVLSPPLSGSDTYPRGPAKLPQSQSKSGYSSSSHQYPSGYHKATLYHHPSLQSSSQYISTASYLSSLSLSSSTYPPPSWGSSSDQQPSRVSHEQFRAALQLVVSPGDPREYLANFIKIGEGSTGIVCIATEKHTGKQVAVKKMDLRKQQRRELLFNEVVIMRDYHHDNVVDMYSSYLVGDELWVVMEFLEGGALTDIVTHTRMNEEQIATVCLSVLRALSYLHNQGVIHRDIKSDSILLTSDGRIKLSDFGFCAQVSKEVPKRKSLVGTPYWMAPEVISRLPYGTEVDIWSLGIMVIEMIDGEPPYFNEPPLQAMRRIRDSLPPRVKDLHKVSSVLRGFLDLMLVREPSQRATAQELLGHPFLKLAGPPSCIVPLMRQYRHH

[13] = biological target: 178 full-length kinases (Homo sapiens, UniProt P22455); conditions: FGFR4, Nluc C, probe 5 at 1 (unit uncertain)
[14] = biological target: 178 full-length kinases (Homo sapiens, UniProt Q99640); conditions: PKMYT1, Nluc C, probe 2 at 1 (unit uncertain)
[15] = biological target: 178 full-length kinases (Homo sapiens, UniProt P53779); conditions: JNK3, Nluc C, probe 5 at 1 (unit uncertain)
Sequence of 178 full-length kinases (Homo sapiens, UniProt P53779) (P53779 whole entry): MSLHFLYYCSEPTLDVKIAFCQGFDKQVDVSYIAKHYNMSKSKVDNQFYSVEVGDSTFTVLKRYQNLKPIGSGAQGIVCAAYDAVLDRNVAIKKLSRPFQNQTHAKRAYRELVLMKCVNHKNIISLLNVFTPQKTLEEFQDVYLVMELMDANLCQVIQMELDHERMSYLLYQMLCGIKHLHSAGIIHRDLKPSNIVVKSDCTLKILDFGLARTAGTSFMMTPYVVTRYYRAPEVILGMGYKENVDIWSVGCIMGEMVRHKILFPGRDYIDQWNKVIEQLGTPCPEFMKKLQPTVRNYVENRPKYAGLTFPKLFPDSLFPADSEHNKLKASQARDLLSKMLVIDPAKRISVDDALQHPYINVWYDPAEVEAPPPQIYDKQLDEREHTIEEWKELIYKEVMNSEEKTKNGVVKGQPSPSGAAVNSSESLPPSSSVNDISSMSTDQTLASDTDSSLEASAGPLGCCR

[16] = biological target: 178 full-length kinases (Homo sapiens, UniProt Q8IVW4); conditions: CDKL3, Nluc N, probe 1 at 0.05 (unit uncertain)
[17] = biological target: 178 full-length kinases (Homo sapiens, UniProt P30291); conditions: WEE1 (NP_003381), Nluc orientation C, probe 5 at 0.05 (unit uncertain)
[18] = biological target: 178 full-length kinases (Homo sapiens, UniProt Q9H0K1); conditions: SNF1LK2 (NP_056006), Nluc orientation N, probe 6 at 0.1 (unit uncertain)

C[C@@H](Oc1cc(-c2cnn(C3CCNCC3)c2)cnc1N)c1c(Cl)ccc(F)c1Cl [Crizotinib]
No Binding: Occupancy, % Replicate 1 ([2]; replicate 1) | Occupancy, % Replicate 2 ([2]; replicate 2) | Occupancy, % Replicate 1 [3] | Occupancy, % Replicate 2 [3] | Occupancy, % Replicate 1 [4] | Occupancy, % Replicate 2 [4] | Occupancy, % Replicate 1 [5] | Occupancy, % Replicate 1 [6] | Occupancy, % Replicate 2 [6] | Occupancy, % Replicate 1 [7] | Occupancy, % Replicate 1 [8] | Occupancy, % Replicate 2 [8] | Occupancy, % Replicate 1 [9] | Occupancy, % Replicate 2 [9] | Occupancy, % Replicate 1 [10] | Occupancy, % Replicate 2 [10] | Occupancy, % Replicate 2 [11] | Occupancy, % Replicate 1 [12] | Occupancy, % Replicate 2 [12] | Occupancy, % Replicate 1 [13] | Occupancy, % Replicate 1 [14] | Occupancy, % Replicate 1 [15] | Occupancy, % Replicate 2 [15] | Occupancy, % Replicate 1 [16] | Occupancy, % Replicate 2 [16] | Occupancy, % Replicate 1 ([17]; replicate 1) | Occupancy, % Replicate 2 ([17]; replicate 2) | Occupancy, % Replicate 1 ([18]; replicate 1) | Occupancy, % Replicate 2 ([18]; replicate 2)
12%: receptor occupancy ([1]; read-out: Occupancy, % Replicate 1) | receptor occupancy ([1]; read-out: Occupancy, % Replicate 2)
